Non-standard residues stand in square brackets, D forms with d. Residues, ends and D or L forms follow the SMILES beside them. Nle = CCCC[C@H](N)C(=O)O
test system: INS1 cells; experiment: Mitochondrial content / cellular mitochondrial mass by imaging; format: cell-based; details: INS1 cell line; 8 hours, 24 hours, and 72 hours; three concentrations; FIG. 9; normalized to DMSO
Protocol: Cells were cultured on coverslips inside a Petri dish filled with the appropriate culture medium or grown directly into a four-chamber glass bottom dish and cells were subsequently imaged on the LSM880. At least 30 cells per condition per experiment were collected, at least three separate experiments were performed for imaging clonal cells. Image analysis was performed in the CellProfiler™ software (cellprofiler.org) to measure mitophagic events. Individual mitochondrial fluorescence intensity and area were measured in CellProfiler™ and imported into Microsoft Excel®. Mitochondria smaller than 2 pixels in area were not included in final analyses. Images were subjected to top hat filtering followed by global threshold Otsu method to segment mitochondria. To assess amount of mitochondrial content, green fluorescence intensity of objects identified as mitochondrial structures were quantitated. Data has been normalized to the control treatment, dimethyl sulfoxide (DMSO).

Structure (SMILES) | cellular mitochondrial mass (mitochondrial content)
CCCCOC(=O)NS(=O)(=O)c1ccc(OC(F)(F)F)cc1-c1ccc(Cn2ccnc2)cn1 [Compound 7] | stable
CCCC[C@H](NC(=O)[C@H](CCCNC(=N)N)NC(=O)[C@@H](N)CC(=O)O)C(=O)N[C@@H](Cc1ccc(O)cc1)C(=O)N[C@H](C(=O)N[C@@H](Cc1c[nH]cn1)C(=O)N1CCC[C@H]1C(=O)O)[C@@H](C)CC [Nle^3-A(1-7), Asp-Arg-Nle-Tyr-Ile-His-Pro] (H-DR[Nle]YIHP-OH) | stable
CC[C@H](C)[C@H](NC(=O)[C@H](Cc1ccc(O)cc1)NC(=O)[C@@H](NC(=O)[C@H](CCCNC(=N)N)NC(=O)[C@@H](N)CC(=O)O)C(C)C)C(=O)N[C@@H](Cc1c[nH]cn1)C(=O)N1CCC[C@H]1C(=O)O [angiotensin(1-7), H-Asp-Arg-Val-Tyr-Ile-His-Pro-OH] | stable
